For 1 compound, melting point results are on record in US20060281786A1, “Compounds having activity at 5ht2c receptor and uses thereof” (priority 2003, published 2006).

Broadly, the melting point is the temperature of the solid-liquid transition. Regarding `COc1cc2c3c(n(C)c2cc1Br)CN(c1ccc(OC)c(OCCN2CCCCC2)c1)C3=O.Cl`, the melting point was 227 to 229 °C.
